# Source: patent US20240115557A1, “INHIBITORS OF RNA-GUIDED NUCLEASES AND USES THEREOF” (The Brigham and Women's Hospital, Inc., priority 2022, published 2024)
# Molecular target: T1, SaCas9 (Staphylococcus aureus, UniProt J7RUA5)
# T1 sequence (J7RUA5 1-1053): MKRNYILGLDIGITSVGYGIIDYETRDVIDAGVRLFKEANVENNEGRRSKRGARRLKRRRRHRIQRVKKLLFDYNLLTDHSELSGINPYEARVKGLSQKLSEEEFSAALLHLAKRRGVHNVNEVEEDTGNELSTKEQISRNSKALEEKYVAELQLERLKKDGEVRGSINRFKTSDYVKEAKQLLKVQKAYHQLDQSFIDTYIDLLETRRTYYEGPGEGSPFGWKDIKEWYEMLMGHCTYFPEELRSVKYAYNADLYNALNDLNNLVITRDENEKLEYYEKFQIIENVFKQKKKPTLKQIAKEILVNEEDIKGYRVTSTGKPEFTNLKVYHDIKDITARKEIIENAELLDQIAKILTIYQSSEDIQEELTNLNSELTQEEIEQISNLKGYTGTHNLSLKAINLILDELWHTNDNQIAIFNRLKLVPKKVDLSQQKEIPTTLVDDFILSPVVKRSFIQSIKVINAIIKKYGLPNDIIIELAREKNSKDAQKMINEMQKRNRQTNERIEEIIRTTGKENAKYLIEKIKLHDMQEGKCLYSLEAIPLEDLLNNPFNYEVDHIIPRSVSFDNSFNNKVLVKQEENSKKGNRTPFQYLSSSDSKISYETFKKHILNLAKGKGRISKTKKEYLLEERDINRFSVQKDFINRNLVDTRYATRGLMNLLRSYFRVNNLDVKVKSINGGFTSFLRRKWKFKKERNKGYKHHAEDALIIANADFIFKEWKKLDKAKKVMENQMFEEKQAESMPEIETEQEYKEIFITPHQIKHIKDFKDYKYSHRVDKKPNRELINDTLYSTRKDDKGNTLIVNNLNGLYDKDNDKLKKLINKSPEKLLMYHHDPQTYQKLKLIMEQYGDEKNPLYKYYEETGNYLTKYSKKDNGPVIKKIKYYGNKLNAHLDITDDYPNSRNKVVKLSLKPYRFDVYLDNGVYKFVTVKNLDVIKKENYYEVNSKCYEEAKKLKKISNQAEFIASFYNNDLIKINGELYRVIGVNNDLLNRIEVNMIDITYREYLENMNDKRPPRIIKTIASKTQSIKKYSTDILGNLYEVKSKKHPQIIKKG
# Assay: Strand displacement assay, SaCas9 primary screen
# Type: biochemical
# Conditions: for Auto Zscore Rep 1 / Auto Zscore Rep 2 / Normalized Zscore Rep 1 / Normalized Zscore Rep 2: SaCas9 primary screen; for Auto Zscore Rep 1 / Normalized Zscore Rep 1: replicate 1; for Auto Zscore Rep 2 / Normalized Zscore Rep 2: replicate 2; for Normalized Zscore Rep 1 / Normalized Zscore Rep 2: weaker potential hits; for 3 sigma Hit: flag 1 = hit at 3 sigma; for 5 sigma Hit: flag 1 = hit at 5 sigma
# Outline: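 Cas9 RNP (1:1.2 protein:gRNA) pre-formed in 20 mM Tris-HCl pH 7.5, 100 mM KCl, 5 mM MgCl2, used at 10 nM (2× stock) with Alexa-Fluor 647 substrate/quencher at 1 nM/5 nM (2× stock). Reaction ran 2.5 h at 37°C; strand displacement read as fluorescence. Hits called by Z-score: 3–5σ weak, >5σ strong.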
Structure (SMILES),Auto Zscore Rep 1,Auto Zscore Rep 2,Normalized Zscore Rep 1,Normalized Zscore Rep 2,3 sigma Hit,5 sigma Hit
CCN(Cc1ccccc1)c1ccc(NS(=O)(=O)c2c(C)cc(C)cc2C)cc1C(=O)O [Cpd F294-0002],−0.1185,0.01199,0.2241,0.205,1,1
CCN(Cc1ccccc1)c1ccc(NS(=O)(=O)c2ccccc2)cc1C(=O)O [Cpd F294-0004],−1.138,−1.139,0.2186,0.1863,1,–
CCN(Cc1ccccc1)c1ccc(NS(=O)(=O)CC)cc1C(=O)O [Cpd F294-0006],−0.2858,−0.7265,0.1668,0.1791,1,–
CCN(Cc1ccccc1)c1ccc(NS(C)(=O)=O)cc1C(=O)O [Cpd F294-0009],0.01198,0.247,0.1769,0.155,1,–
CCN(Cc1ccccc1)c1ccc(NS(=O)(=O)c2cc(C)ccc2C)cc1C(=O)O [Cpd F294-0010],−0.2001,1.494,0.1692,0.1845,1,–
CCN(Cc1ccccc1)c1ccc(NS(=O)(=O)c2cc(OC)ccc2OC)cc1C(=O)O [Cpd F294-0012],−1.677,−1.264,0.1772,0.1434,1,–
O=C(O)c1cc(NS(=O)(=O)N2CCOCC2)ccc1N1CCCC(CN2CCCC2)C1 (stereo not shown) [Cpd F294-1002],−0.7997,−0.2997,0.2452,0.1681,1,1
Cc1cccc(NC(=O)C2CCCN(c3ccc(-c4ccccc4)nn3)C2)c1 (stereo not shown) [Cpd F305-0007],−0.4204,−0.1511,0.1614,0.1636,1,–
COc1ccc(-c2nc(N)s[n+]2-c2ccccc2)cc1 [Cpd T0501-2049],0.5613,0.7691,0.6053,0.6033,1,1
C=C1C(C(=O)NCc2ccco2)C1C(=O)NCc1ccco1 (stereo not shown) [Cpd T0501-2919],0.7411,0.4717,0.507,0.5892,1,1
O=C1c2cccc3cccc(c23)N1S(=O)(=O)c1cccs1 [Cpd T0503-3218],1.379,1.343,0.1426,0.123,1,–
Cc1ccc(C)c(SCC(=O)NC(C)C(c2ccccc2)N2CCOCC2)c1 (stereo not shown) [Cpd T0507-0044],1.662,−1.14,0.2923,0.2417,1,1
O=C(CSc1ccc2ccccc2c1)N1CCN(c2ccc(O)cc2)CC1 [Cpd T0508-7813],−2.33,−1.326,0.1931,0.165,1,–
O=C(CSc1ccc2ccccc2c1)NCCc1ccc(O)c(O)c1 [Cpd T0509-3636],0.8861,0.3048,0.4351,0.3562,1,1
